Source: article PMC11613490, “Cyclophostin and Cyclipostins analogues counteract macrolide-induced resistance mediated by erm(41) in Mycobacterium abscessus” (Journal of Biomedical Science, 2024)
In brackets after ≈: the same amount, converted by molar mass. Read-outs that look alike come from different tables or passages of the source.

How the values were obtained:
Assay in all cases: microbe, parasite or virus in culture
[1] = system: M. abscessus S reference strain (Control, untreated); conditions: Mycobacteroides abscessus, read-out: MIC (0 µg/mL CyC, alone)
Description: Synergistic activities were tested in 96-well microplates by the checkerboard assay in Middlebrook 7H9-S^OADC broth and using microdilution method [47]. MIC of the antibiotics were determined in 96 well flat-bottom Nunclon Delta Surface microplates with lid (Thermo-Fisher Scientific, ref. 167008) using optical density to assess growth. Log-phase bacteria were diluted to a cell density of 5 × 10^6 cells/mL in 7H9-S^OADC medium. Then, 100 µL of this bacterial suspension (5 × 10^5 cells final per well) was added to each well containing 100 µL of the 7H9-S^OADC medium, serial two-fold dilutions of the selected antibiotics or controls to a final volume of 200 µL. In addition, wells containing 200 µL of 7H9-S^OADC medium only were used as sterility/background controls, whereas wells containing 100 µg/mL kanamycin (Euromedex) was used as positive control for growth inhibition. Plates were incubated at 37 °C for 4 to 5 days. The optical density (OD) at 600 nm was quantified using a Tecan Spark 10 M™ multimode microplate reader (Tecan Group Ltd., France). Relative growth units were defined as: RGU% = (test well OD600nm/mean OD600nm of growth control wells) ×100. For each condition, three biological replicates were performed. The MIC of each drug was defined as the lowest drug concentration that inhibited more than 90% of the bacterial growth.

[2] = system: M. abscessus S reference strain (Control, untreated); parameters: species or system Mycobacterium abscessus; broth microdilution in 7H9-OADC, OD600 growth, MIC defined as 90% growth inhibition; conditions: Mycobacteroides abscessus, single drug, read-out: MIC (0 µg/mL CyC, alone)
[3] = system: M. abscessus S (control, untreated); parameters: species or system Mycobacterium abscessus S; broth microdilution / checkerboard MIC in 7H9-S OADC, OD600, more than 90% growth inhibition; conditions: Mycobacteroides abscessus, read-out: MIC, single drug

CCCCCCCCCCCCCCCCOP1(=O)OCCC(C(=O)OC)=C(C)O1 (stereo not shown) [CyC17]
MIC [1]: 3.2 µg/mL (≈ 7.17 µM)

CCCCCCCCCCCOP1(=O)OCCC(C(=O)OC)=C(C)O1 (stereo not shown) [CyC31]
MIC [2]: 20 µg/mL (≈ 53.1 µM)

CC[C@H]1OC(=O)[C@H](C)[C@@H](O[C@H]2C[C@@](C)(OC)[C@@H](O)[C@H](C)O2)[C@H](C)[C@@H](O[C@@H]2O[C@H](C)C[C@H](N(C)C)[C@H]2O)[C@](C)(O)C[C@@H](C)CN(C)[C@H](C)[C@@H](O)[C@]1(C)O [AZM, azithromycin]
MIC [3]: 6 µg/mL

CC[C@H]1OC(=O)[C@H](C)[C@@H](O[C@H]2C[C@@](C)(OC)[C@@H](O)[C@H](C)O2)[C@H](C)[C@@H](O[C@@H]2O[C@H](C)C[C@H](N(C)C)[C@H]2O)[C@](C)(OC)C[C@@H](C)C(=O)[C@H](C)[C@@H](O)[C@]1(C)O [CLR, clarithromycin]
MIC [3]: 0.6 µg/mL
